This is an account of results in patent US20110318298A1, “VIRAL INFECTION THERAPEUTIC DRUG CONTAINING POLYALKYLENEIMINE” (Nippon Shokubai Co., Ltd., priority 2008, published 2011).

For one data set, the system named is MDCK cells. Briefly: Cytotoxicity (CC50), cell count by trypan blue staining, MDCK cells. The format is cell-based, dog.
Data set [1] deals with HSV-2. In words: Anti-viral activity on HSV-2, plaque assaying in Vero cells. Conditions: Human alphaherpesvirus 2, Vero.
Data set [2] has as its system HSV-2. In words: Comparison of SP-012 and acyclovir in HSV-2-infected mice (Example 9). The settings on record: for Number of death/total number: 0.2 mg per administration to the genital until seven days after infection, 15 days observation; for Number of HSV-2 positive mouse/total number: genital wash, first day to 12 days after infection.
Experimental: Five to six-week-old female BALB/c mice were locally (genital) inoculated with HSV-2 in an amount of 20 μl (containing a reduced viral amount of 1×10^4 PFU per mouse in consideration of tracing also untreated control mice). […] From the first day to 12 days after the viral infection, the genital was washed with phosphate-buffered physiological saline every day, and the amount of virus therein was measured in each mouse. Also, for 15 days, the severity of the development of the disease and the case of death were recorded.
Data set [3] relates to HSV-2. Briefly: Inhibitory effect on HSV-2 virus invasion of the cells (Vero cells, 37° C.). Conditions: for Amount of virus invaded in 30 minutes / Amount of virus invaded in 3 hours: Vero cells, 37° C., control = 100%. The format is cell-based, herpes simplex virus type 2. From the text: Subsequently, the inhibitory effect of polyethyleneimine in the stage in which HSV-2 adsorbed to the host cells invades the cells was investigated.

For data set [4], the system named is HSV-2. In words: Inhibitory effect on HSV-2 virus adsorption to the cells (Vero cells, 4° C.). The settings on record: for Amount of virus adsorbed to host cells: Vero cells, 4° C. one hour, control = 100%.
A short description of a further data set: in vitro. Conditions: African green monkey.

≈ marks a conversion by molar mass, not a printed value. Where two headings read alike, the source gives them in different places.

Experimental for in vitro: A test for evaluation of the cytotoxicity of polyethyleneimine in each cell was carried out according to the following procedure.
The cell proliferation count was then measured by trypan blue staining.

Consider polyethyleneimine [SP-006], for which the “Cytotoxicity (CC50)” value amounted to 1.1 μl/ml with Vero cells and 0.57 μl/ml with MDCK cells.

Regarding polyethyleneimine [SP-012], the “Cytotoxicity (CC50)” value with MDCK cells is 0.34 μl/ml.

On to polyethyleneimine [P-1000], for which, in the data set with Vero cells, the “Cytotoxicity (CC50)” value was determined as 0.0044 μl/ml.

Consider polyethyleneimine [SP-003], for which the “Cytotoxicity (CC50)” value is 0.071 μl/ml in the data set on Vero cells and 0.057 μl/ml in the data set on MDCK cells.

Consider polyethyleneimine [SP-200], for which, in the data set with Vero cells, the “Cytotoxicity (CC50)” value turned out to be 0.0045 µg/mL.

As usually defined, the IC50 is the concentration that inhibits the measured activity by half. For the compound `Nc1nc2c(ncn2COCCO)c(=O)[nH]1` [Acyclovir, acyclovir], the IC50 in the data set on HSV-2 [1] (read-out: Anti-viral activity (IC50) A) worked out at 0.91 µg/mL (≈ 4.04 µM); in the data set with HSV-2 [1] (read-out: Anti-viral activity (IC50) B), 0.92 µg/mL (≈ 4.09 µM). Further, the figures for the “Number of death/total number” value in the data set with HSV-2 [2] and with HSV-2 [2] (listed as acyclovir) were 0/10 and “No mice died”, respectively. Besides, the “Development of the disease (genital inflammation)” value in the data set with HSV-2 [2] (0.2 mg per administration, 10 mice) was “transient inflammation”. The “Number of HSV-2 positive mouse/total number” value with HSV-2 [2] (0.2 mg per administration) is listed as 1/10; in the data set on HSV-2 [2] (0.2 mg per administration, listed as acyclovir), “the virus was detected in one out of 10 mice”. In addition, the “Amount of virus invaded in 30 minutes” value in the data set on HSV-2 [3] (1 μg/ml) was 99%; with HSV-2 [3] (10 μg/ml) it was 94%; in the data set on HSV-2 [3] (100 μg/ml), 87%; with HSV-2 [3] (1000 μg/ml), 68%; with HSV-2 [3] (10000 μg/ml) it was “Toxic”. The results for the “Amount of virus invaded in 3 hours” value with HSV-2 [3] (100 μg/ml), with HSV-2 [3] (1000 μg/ml) and in the data set with HSV-2 [3] (10000 μg/ml) were 89%, “Toxic” and “Toxic”, respectively. The “Inhibition of viral invasion, overall finding” value with HSV-2 [3] (over the tested concentrations) is reported as “did not inhibit HSV-2 virus invasion of the cells”. For the same compound, the “Amount of virus adsorbed to host cells” value in the data set on HSV-2 [4] (100 μg/ml) is 76%; with HSV-2 [4] (1000 μg/ml), “Toxic”; in the data set with HSV-2 [4] (10000 μg/ml), “Toxic”. Further, in the data set with HSV-2 [4] (over the tested concentrations), the “Inhibition of viral adsorption, overall finding” value was “almost no dose-dependent adsorption-inhibitory effect”. In “in vitro”, this compound showed a CC50 at 72 h of 890 µg/mL (≈ 3950 µM).

For polyethyleneimine [SP-018], the “Cytotoxicity (CC50)” value in the data set with Vero cells is 0.057 μl/ml; with MDCK cells, 0.064 μl/ml.
